# Laboratory results as given in patent publication EP0752872B1, “NADH OXIDASE AS A TARGET IN DIAGNOSIS AND THERAPY” (Morré, D. James, priority 1994, dated 1995).
# Experiments:
# [1] = target: T1, plasma membrane NADH oxidase activity from RLT-N hepatoma (Rattus norvegicus, UniProt D3Z9Z5); assay: Spectrophotometric NADH oxidase assay, rat hepatoma plasma membranes; format: biochemical
# T1 sequence (D3Z9Z5 1-606): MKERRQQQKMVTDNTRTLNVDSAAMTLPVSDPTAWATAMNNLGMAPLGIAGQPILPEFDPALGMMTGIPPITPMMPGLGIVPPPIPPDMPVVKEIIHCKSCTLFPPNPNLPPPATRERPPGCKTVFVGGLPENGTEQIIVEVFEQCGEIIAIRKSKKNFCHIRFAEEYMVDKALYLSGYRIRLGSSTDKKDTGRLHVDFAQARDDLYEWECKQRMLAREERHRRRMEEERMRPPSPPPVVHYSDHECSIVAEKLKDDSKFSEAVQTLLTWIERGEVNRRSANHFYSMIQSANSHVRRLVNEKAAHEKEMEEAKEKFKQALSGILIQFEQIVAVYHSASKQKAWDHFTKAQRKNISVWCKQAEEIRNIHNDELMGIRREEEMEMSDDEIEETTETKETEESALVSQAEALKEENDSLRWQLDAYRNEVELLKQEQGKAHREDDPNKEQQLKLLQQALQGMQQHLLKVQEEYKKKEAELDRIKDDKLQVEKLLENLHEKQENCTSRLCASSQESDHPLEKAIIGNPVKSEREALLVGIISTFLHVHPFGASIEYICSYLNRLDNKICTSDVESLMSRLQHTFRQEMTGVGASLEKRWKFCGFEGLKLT
# Procedure: (§1) Spectrophometric assay of NADH oxidase. NADH oxidase activity was determined as the disappearance of NADH measured at 340 nm in a reaction mixture containing 25 mM Tris-MES buffer (pH 7.2), 1 mM KCN to inhibit the low levels of contaminating mitochondrial oxidase activity, and 150 µM NADH at 37°C with constant stirring. Activity was measured using a Hitachi U3210 spectrophotometer with continuous recording over two intervals of 5 min each. A millimolar extinction coefficient of 6.22 was used to determine specific activity.
# [2] = test system: plasma membrane NADH oxidase; conditions: addition at 0.1 µM; normal rat liver plasma membrane vesicles; no addition 0.72 ± 0.06; cited from earlier work
# [3] = target: T2, NADH oxidase from HeLa cell plasma membranes (Homo sapiens, UniProt Q16206); assay: Spectrophotometric NADH oxidase assay, HeLa plasma membranes; format: biochemical; conditions: HeLa plasma membranes
# T2 sequence (Q16206 1-610): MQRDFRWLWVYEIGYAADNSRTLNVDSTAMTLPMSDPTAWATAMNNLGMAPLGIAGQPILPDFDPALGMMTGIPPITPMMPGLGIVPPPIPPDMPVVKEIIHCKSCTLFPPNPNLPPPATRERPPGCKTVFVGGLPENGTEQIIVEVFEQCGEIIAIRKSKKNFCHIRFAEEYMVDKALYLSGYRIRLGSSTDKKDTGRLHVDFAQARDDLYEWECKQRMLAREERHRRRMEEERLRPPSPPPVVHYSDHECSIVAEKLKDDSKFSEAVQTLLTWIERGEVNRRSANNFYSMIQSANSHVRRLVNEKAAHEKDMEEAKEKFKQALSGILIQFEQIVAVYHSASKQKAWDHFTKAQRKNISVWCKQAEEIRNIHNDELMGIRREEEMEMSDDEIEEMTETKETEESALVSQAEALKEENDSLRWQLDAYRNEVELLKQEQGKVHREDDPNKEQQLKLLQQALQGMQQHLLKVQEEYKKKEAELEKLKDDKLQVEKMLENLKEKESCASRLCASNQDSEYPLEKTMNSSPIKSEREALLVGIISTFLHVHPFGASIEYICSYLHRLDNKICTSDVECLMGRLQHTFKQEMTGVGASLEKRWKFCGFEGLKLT
# Procedure: Purification of plasma membranes from HeLa cells. HeLa cells were grown as suspension cultures in minimum essential medium (MEM) supplemented with horse serum, diferric transferrin and heparin. Cells were collected by centrifugation for 6 to 15 min at 1,000 to 3,000 rpm. The cell pellets were resuspended in 0.2 mM EDTA in 1 mM NaHCO3 in an approximate ratio of 1 ml per 10^8 cells and incubated on ice for 10 to 30 min to swell the cells. Homogenization was with a Polytron Homogenizer for 30 to 40 sec at 10,500 rpm using a PT-PA 3012/23 or ST-probe in 7 to 8 ml aliquots. To estimate breakage, the cells are monitored by light microscopy before and after homogenization. […]
# The homogenates were centrifuged for 10 min at 1,000 rpm (175 g) to remove unbroken cells and nuclei and the supernatant was centrifuged a second time at 1.4 x 10^6 g min (e.g. 1 h at 23,500 g) to prepare a plasma membrane enriched microsome fraction. […] The purity of the plasma membrane was determined to be > 90% by electron microscope morphometry. […]
# Spectrophometric assay of NADH oxidase. NADH oxidase activity was determined as the disappearance of NADH measured at 340 nm in a reaction mixture containing 25 mM Tris-MES buffer (pH 7.2), 1 mM KCN to inhibit the low levels of contaminating mitochondrial oxidase activity, and 150 µM NADH at 37°C with constant stirring. […]
# [4] = test system: plasma membrane NADH oxidase; assay: Spectrophotometric NADH oxidase assay, rat liver plasma membranes (normal cells); format: biochemical
# Procedure: Purification of plasma membranes from rat liver. A 5000 x g pellet from the preparation of Golgi apparatus (Morré (1971) Meth. Enzymol. 22, 130-148) was the starting material. The fluffy layer which contains the Golgi apparatus fraction was mixed, withdrawn and excluded from the plasma membrane preparations. Cold 1 mM NaHCO3 (5 ml) was added to each tube and the friable yellow-brown upper part of the pellet was resuspended with a pen-brush, leaving the reddish tightly packed bottom part of the pellet undisturbed. The resuspended material was homogenized in aliquots of 5 ml each in a 30 ml stainless steel homogenizer (Duragrind) 20 times by hand. The homogenates were combined, diluted with cold 1 mM NaHCO3 (1:1 dilution), and centrifuged at 6000 x g in a HB rotor for 15 min. The supernatant was discarded and the pellet was used for the two-phase separation (Morré & Morré (1989) BioTechniques 7:946-958).
# The two-phase system contained 6.4% (w/w) Dextran T-500 (Pharmacia), 6.4% (w/w) polyethylene glycol) 3350 (Fisher), and 5 mM potassium phosphate buffer (pH 7.2) (Morré & Morré, 1989, supra). The homogenate (1 g) was added to the two-phase system and the weight of the system was brought to 8 g with distilled water. The tubes were inverted vigorously for 40 times in the cold (4°C). The phases were separated by centrifugation at 750 rpm (150 x g) in a Sorvall HB 4 rotor for 5 min. The upper phases were carefully withdrawn with a pasteur pipette, divided in half and transferred into 40 ml plastic centrifuge tubes and diluted with cold 1 mM NaHCO3. The purified plasma membranes were collected by centrifugation at 10,000 x g in a HB rotor for 30 min. Plasma membrane pellets were resuspended in 50 mM Tris-Mes buffer (pH 7.2) and stored at -70°C. Proteins were determined using the bicinchoninic acid (BCA) assay (Smith et al. (1985) Anal. Biochem. […]: 76-85) with bovine serum albumin as standard.
# as §1
# [5] = test system: NADH oxidase activity of plasma membranes of HL-60 cells; assay: NADH oxidase assay, HL-60 plasma membranes; format: biochemical, human
# Procedure: as §1
# HL-60 cells [6] = assay: Ascorbate radical assay of electron flow released from cells; format: cell-based, human; conditions: 0.2 mM ascorbate
# Procedure: Of particular interest is employing an electron acceptor in the assay for NADH oxidase, conveniently ascorbate radical, where one may follow the rate of disappearance of the ascorbate radical under the conditions of the assay. One can measure the reduction of ascorbate free radical at 265 nm employing a spectrophotometer as described by Winkler (1987) Biochim. et Biophys. Acta 925:258-264. One may use intact cells suspended in a convenient buffer medium containing ascorbate, incubating the cell suspension and then following the reduction of the ascorbate as described above. See, also, Alcain et al. (1991) Biochim. et Biophys. Acta 1073:380-385 and Navas et al. (1992) FEBS Letters 299:223-226.
# Under these conditions, electron flow is inhibited by adriamycin at concentrations where growth is inhibited in adriamycin susceptible HL-60 cells, but not inhibited with adriamycin-resistant cells, where growth also is not inhibited. These inhibitions with susceptible cells were observed without perceptible lag. Also the response was observed without preincubation with adriamycin.
# [7] = test system: NADH oxidase activity of serum; assay: NADH oxidation by rat serum samples; format: biochemical; conditions: +0.25 µM adriamycin
# Procedure: as §1
# [8] = test system: circulating NADH oxidase in the serum; assay: NADH oxidase activity of human serum; format: biochemical; conditions: adriamycin
# Procedure: as §1
# HL-60 cells [9] = assay: Growth of HL-60 cells in suspension; format: cell-based, human
# [10] = test system: FIV-infected Crandall feline leukemia cells; assay: Growth of FIV-infected cells; format: cell-based; conditions: Felis catus, read-out: concentration inhibiting growth
# Procedure: (§2) The antisera were conjugated to adriamycin through an activated carboxyl of the antibody to the amine of adriamycin free base using 2-isobutoxyl-1-isobutoxycarbonyl-1,2-dihydroxyquinoline, where the antibody was bound to an Ag-BSA sepharose affinity column. The concentration of drug conjugated was determined spectroscopically and was tested initially at a concentration of 0.2 µM on the growth of FIV-infected and -uninfected Crandall feline leukemia cells.
# [11] = test system: uninfected Crandall feline leukemia cells; assay: Growth of uninfected cells; format: cell-based; conditions: Felis catus; normal cells; read-out: concentration inhibiting growth
# Procedure: as §2
molecule,measurement,setting,value
simalikalactone D [similikalactone D],inhibition of NADH oxidase activity (in words),"[1]; final concentration of 0.4 µM prepared in DMSO, equivalent DMSO without effect",inhibited
C=C1/C(=C\C=C2/CCC[C@]3(C)[C@@H]([C@H](C)CCCC(C)(C)O)CC[C@@H]23)C[C@@H](O)C[C@@H]1O [Calcitrol],NADH oxidase,[2],0.16 ± 0.04 nmoles/min/mg protein
CCCCCCCCCC[C@H](O)[C@H]1CC[C@H]([C@H]2CC[C@H]([C@H](O)CCCCCCCCCC[C@@H](O)CC3=C[C@H](C)OC3=O)O2)O1 [bullatacin],inhibition of NADH oxidase activity (in words),[3],inhibition
COc1cccc2c1C(=O)c1c(O)c3c(c(O)c1C2=O)C[C@@](O)(C(=O)CO)C[C@@H]3O[C@H]1C[C@H](N)[C@H](O)[C@H](C)O1 [adriamycin],inhibition of growth factor-stimulated NADH oxidase activity,"[4]; 0.1 µM adriamycin, activity stimulated by epidermal growth factor (EGF)",inhibited completely
same,inhibition of NADH oxidase activity,"[4]; 0.1 µM adriamycin, liver plasma membranes",uninhibited
same,IC50,"[4]; plasma membranes from rat liver, normal cells, read-out: ED50 for inhibition of NADH oxidase activity",~7 µM
same,inhibition at 0.1 µM,"[1]; 0.1 µM adriamycin, hepatoma plasma membranes",40%
same,inhibition of NADH oxidase activity (in words),[5]; adriamycin-resistant HL-60 cells,not inhibited
same,inhibition of NADH oxidase activity (in words),"[5]; normal, adriamycin-susceptible HL-60 cells",inhibited
same,inhibition of electron flow (in words),HL-60 cells [6]; adriamycin susceptible HL-60 cells,inhibited
same,inhibition of electron flow (in words),HL-60 cells [6]; adriamycin-resistant cells,not inhibited
same,Relative rates of NADH oxidation,"[7]; serum from normal rats, no adriamycin 1.7 ± 0.1",1.75 ± 0.05
same,Relative rates of NADH oxidation,"[7]; serum from rats bearing an RLT-28 tumor, no adriamycin 1.0 ± 0.1",0.35 ± 0.05
same,effect on change in absorbance (in words),[8]; sera from 12 normal individuals,consistently stimulated
same,effect on activity (in words),[8]; sera from the 18 cancer patients,inhibited with 17 of the samples and unchanged in one
same,inhibition of growth (in words),"HL-60 cells [9]; HL-60 cells, adriamycin susceptible, not differentiated",inhibited
same,inhibition of growth (in words),HL-60 cells [9]; adriamycin-resistant cells,not inhibited
same,minimal effective concentration,[10],≥ 10 µM
same,minimal effective concentration,[11],≥ 10 µM
